Source: patent US9256062B2, “Electrowetting display apparatus and dye composition for electrowetting display” (FUJIFILM CORPORATION, priority 2012, dated 2016)

Tests used:
Format in all cases: physicochemical
[1] = Relative dielectric constant of colorant; settings: for Relative dielectric constant (1 kHz): extrapolated to colorant concentration 100% from diluted n-decane solutions, 1.0 V, 20° C., 40% RH; for relative dielectric constants (in words): summary of Table 1
Experimental: Herein, the relative dielectric constant of the colorant denotes a relative dielectric constant (calculated value) at a colorant concentration of 100%, as determined by extrapolating a straight line (calibration curve) indicating the relationship between the colorant concentration and the relative dielectric constant in a diluted colorant solution.
An equivalent parallel capacitance when a measurement frequency 1 kHz and a measurement voltage of 1.0 V are applied is measured in the state in which a diluted colorant solution is sandwiched between two electrodes facing each other with an electrode interval of 10 μm, and the relative dielectric constant of the diluted colorant solution is calculated by the following equation, based on the equivalent parallel capacitance thus obtained. Relative dielectric constant of diluted colorant solution=Equivalent parallel capacitance×Electrode interval/Electrode area/Dielectric constant of vacuum (∈0)
The relative dielectric constant of each of the colorants is determined by the following method.
That is, the relative dielectric constants of plural diluted colorant solutions at various concentrations, which had been prepared as described in (4-1) below, were measured, respectively, in the manner as described in (4-2) below. From the results obtained, a straight line (calibration curve) showing the relationship between the colorant concentrations and the relative dielectric constants were created. The relative dielectric constant (calculated value) at a colorant concentration of 100% was determined by extrapolating the straight line (calibration curve), and the obtained value was taken as the relative dielectric constant of the colorant.
The respective colorants and n-decane as an organic solvent are mixed, to thereby prepare n-decane solutions (diluted colorant solutions) at various concentrations, respectively.
A diluted colorant solution was sandwiched between ITO electrode-containing glass substrates that are flat plates in parallel facing each other at an electrode interval of 10 μm, and then an equivalent parallel capacitance was measured at the time of voltage application for measurement of 1.0 V at a frequency for measurement of 1 kHz under the conditions of 20° C. and 40% RH using a Model 2353LCR meter (trade name, manufactured by NF Corporation). Based on the equivalent parallel capacitance, the relative dielectric constant of the diluted colorant solution was determined in accordance with the following equation.
Relative dielectric constant of diluted colorant solution=Equivalent parallel capacitance×Interval of electrodes/Area of electrode/Dielectric constant of vacuum (∈0)

[2] = Maximum absorption wavelength, absorbance and absorption coefficient (visible light spectrophotometer); settings: for Absorbance (abs) / Maximum absorption wavelength (λmax): 0.001%-by-mass n-decane solution; for Molar absorption coefficient (ε): at maximum absorption wavelength, calculated by Lambert-Beer law, n-decane solution; for molar extinction coefficients (ε) (in words): summary of Table 1
Excerpt: (§1) Azamethine colorants (the above-mentioned Exemplary Compounds 16, 17, 1, and 3 shown in Table 1 below) and n-decane that was an organic solvent were mixed, respectively, thereby preparing 4 kinds of 0.001%-by-mass n-decane solutions (colored compositions) colored with the azamethine colorants, respectively.
(§2) Separately, azo colorants (Comparative Compounds 1 to 3 mentioned below) and n-decane that was an organic solvent were mixed, respectively, thereby preparing 3 kinds of 0.001%-by-mass n-decane solutions (comparative colored compositions) colored with the azo colorants, respectively, as comparative colored compositions.
The maximum absorption wavelength (λmax) and the absorbance of the colored solutions (colored compositions) were measured using a visible light spectrophotometer (UV-1800 PC, trade name, manufactured by Shimadzu Corporation). Further, the molar extinction coefficient (∈) at a maximum absorption wavelength (λmax) of the colorants included in the colored solutions (the colored compositions) was calculated, based on a Lambert-Beer law.

[3] = Solubility in hexane; settings: for Solubility in hexane [%]: n-hexane, 25° C. and 0.1 MPa, % by mass; for solubility in hexane (in words): summary of Table 1
Experimental: The solubility of each of the colorants in n-hexane as a non-polar solvent was measured as described below.
The respective colorants were each dissolved in n-hexane that had been heated to 50° C. to prepare a saturated solution, and then, the obtained saturated solution was left to stand for 1 hour under an environment of 25° C. and 0.1 MPa. The precipitated colorant was filtered, and the precipitation amount was measured to calculate the solubility (% by mass) of each of the colorants in n-hexane at 25° C. and 0.1 MPa.

[4] = Color tone of colored solution, visually observed; settings: 0.001%-by-mass n-decane solution
Excerpt: as §1, §2
Each of the colored solutions (colored compositions) was visually observed and evaluated regarding the color tone thereof.

| Compound | Relative dielectric constant (1 kHz) [1] | relative dielectric constants (in words) [1] | Absorbance (abs) [2] | Maximum absorption wavelength (λmax) [2] | Molar absorption coefficient (ε) [2] | molar extinction coefficients (ε) (in words) [2] | Solubility in hexane [%] [3] | solubility in hexane (in words) [3] | Color of solution [4] |
| --- | --- | --- | --- | --- | --- | --- | --- | --- | --- |
| CCCCC(CC)c1nnc2n1N=C(C(C)(C)C)/C2=N/c1c(C(C)(C)C)nn2c(C(CC)CCCC)n[nH]c12 (stereo not drawn) [Exemplary Compound 1] | 3.3 | low | 0.533 abs | 492 nm | 28600 L/mol/cm | high | 10% | high solubility | Orange |
| CCCCC(CC)c1n[nH]c2c(/N=C3/C(C#N)=C(C(=O)OC4C(C(C)(C)C)CC(C)CC4C(C)(C)C)c4nc(C(C)(C)C)nn43)c(C(C)(C)C)nn12 (stereo not drawn) [Exemplary Compound 3] | 5.1 | low | 0.797 abs | 545 nm | 56900 L/mol/cm | high | ≥ 40 or % | high solubility | Red |
